The CheMixHub ionic liquid set
± gives the uncertainty stated by the source.

Experiment: xn = mol fraction of the nth substance listed

CCCC[n+]1ccn(C)c1.[Br-] + Cc1ncc(CO)c(CO)c1O.Cl + O
viscosity [mPa·s], 100 kPa
Conditions | 293.15 K | 298.15 K | 303.15 K | 308.15 K | 313.15 K
x2 = 0, x1 = 0.0009002 | 1.033 ± 0.081 | 0.918 ± 0.08 | 0.823 ± 0.08 | 0.753 ± 0.08 | 0.676 ± 0.08
x2 = 0, x1 = 0.001799 | 1.057 ± 0.081 | 0.938 ± 0.08 | 0.841 ± 0.08 | 0.757 ± 0.08 | 0.689 ± 0.08
x2 = 0, x1 = 0.002696 | 1.068 ± 0.081 | 1.001 ± 0.081 | 0.904 ± 0.08 | 0.796 ± 0.08 | 0.748 ± 0.08
x2 = 0.0002693, x1 = 0.0008999 | 1.037 ± 0.081 | 0.922 ± 0.08 | 0.827 ± 0.08 | 0.757 ± 0.08 | 0.68 ± 0.08
x2 = 0.0002812, x1 = 0.001798 | 1.062 ± 0.081 | 0.943 ± 0.08 | 0.846 ± 0.08 | 0.762 ± 0.08 | 0.694 ± 0.08
x2 = 0.0002821, x1 = 0.002695 | 1.073 ± 0.081 | 1.006 ± 0.081 | 0.909 ± 0.08 | 0.801 ± 0.08 | 0.753 ± 0.08
x2 = 0.0004585, x1 = 0.0008998 | 1.041 ± 0.081 | 0.926 ± 0.08 | 0.831 ± 0.08 | 0.761 ± 0.08 | 0.684 ± 0.08
x2 = 0.0005547, x1 = 0.002694 | 1.078 ± 0.081 | 1.011 ± 0.081 | 0.914 ± 0.08 | 0.806 ± 0.08 | 0.758 ± 0.08
x2 = 0.0005732, x1 = 0.001798 | 1.067 ± 0.081 | 0.948 ± 0.081 | 0.851 ± 0.08 | 0.767 ± 0.08 | 0.699 ± 0.08
x2 = 0.0008147, x1 = 0.0008995 | 1.047 ± 0.081 | 0.932 ± 0.08 | 0.837 ± 0.08 | 0.768 ± 0.08 | 0.691 ± 0.08
x2 = 0.0008302, x1 = 0.001797 | 1.072 ± 0.081 | 0.953 ± 0.081 | 0.856 ± 0.08 | 0.772 ± 0.08 | 0.704 ± 0.08
x2 = 0.0008383, x1 = 0.002693 | 1.083 ± 0.081 | 1.016 ± 0.081 | 0.919 ± 0.08 | 0.811 ± 0.08 | 0.763 ± 0.08
x2 = 0.001093, x1 = 0.0008992 | 1.052 ± 0.081 | 0.937 ± 0.08 | 0.842 ± 0.08 | 0.774 ± 0.08 | 0.696 ± 0.08
x2 = 0.001142, x1 = 0.001797 | 1.078 ± 0.081 | 0.959 ± 0.081 | 0.861 ± 0.08 | 0.777 ± 0.08 | 0.709 ± 0.08
x2 = 0.001151, x1 = 0.002693 | 1.089 ± 0.081 | 1.022 ± 0.081 | 0.925 ± 0.08 | 0.816 ± 0.08 | 0.768 ± 0.08
x2 = 0.00136, x1 = 0.000899 | 1.058 ± 0.081 | 0.943 ± 0.08 | 0.848 ± 0.08 | 0.78 ± 0.08 | 0.703 ± 0.08
x2 = 0.001373, x1 = 0.001796 | 1.082 ± 0.081 | 0.963 ± 0.081 | 0.865 ± 0.08 | 0.781 ± 0.08 | 0.713 ± 0.08
x2 = 0.001399, x1 = 0.002692 | 1.094 ± 0.081 | 1.027 ± 0.081 | 0.929 ± 0.08 | 0.82 ± 0.08 | 0.772 ± 0.08
x2 = 0.001637, x1 = 0.0008987 | 1.063 ± 0.081 | 0.948 ± 0.08 | 0.854 ± 0.08 | 0.785 ± 0.08 | 0.708 ± 0.08
x2 = 0.001664, x1 = 0.002691 | 1.098 ± 0.081 | 1.032 ± 0.081 | 0.933 ± 0.08 | 0.825 ± 0.08 | 0.777 ± 0.08
x2 = 0.001674, x1 = 0.001796 | 1.087 ± 0.081 | 0.968 ± 0.081 | 0.87 ± 0.08 | 0.786 ± 0.08 | 0.718 ± 0.08

CS(C)=O + Cn1cc[n+](CCCN)c1.F[B-](F)(F)F
Conditions | viscosity [mPa·s]
328.15 K, 101 kPa, x2 = 0 | 1.249 ± 0.061

CCCC[N+]1(C)CCCC1.FC(F)(F)C(F)(F)[P-](F)(F)(F)(C(F)(F)C(F)(F)F)C(F)(F)C(F)(F)F + FC(F)(F)c1ccccc1
101 kPa, x1 = 1
Conditions | electrical conductivity [S/m] | viscosity [mPa·s]
298.1 K | 0.113 ± 0.002 | 283 ± 19
303 K | 0.146 ± 0.003 | 214 ± 13
308.1 K | 0.186 ± 0.004 | 166.2 ± 9.3
313 K | 0.23 ± 0.005 | 122.1 ± 6.1
318.1 K | 0.273 ± 0.005 | 100.3 ± 4.6
323 K | 0.332 ± 0.007 | 80.1 ± 3.5

CCCC[n+]1ccn(C)c1.[Br-] + NC(N)=NCCC[C@H](N)C(=O)O + O
Conditions | viscosity [mPa·s]
313.15 K, 101.3 kPa, x2 = 0, x1 = 0.0007203 | 0.674 ± 0.009

CCCC[n+]1ccn(C)c1.[Br-] + NC(N)=O + O
298.15 K, 100 kPa
Conditions | viscosity [mPa·s]
x2 = 0, x3 = 0.9487 | 2.21 ± 0.11
x2 = 0.008492, x3 = 0.9402 | 2.29 ± 0.12
x2 = 0.01695, x3 = 0.9318 | 2.29 ± 0.12
x2 = 0.02496, x3 = 0.9237 | 2.28 ± 0.12
x2 = 0.02678, x3 = 0.9219 | 2.36 ± 0.12
x2 = 0.03322, x3 = 0.9155 | 2.36 ± 0.12
x2 = 0.04109, x3 = 0.9076 | 2.41 ± 0.12

CCCCCCCCCCCC[N+](C)(C)Cc1ccccc1.[Cl-] + NCC(=O)NCC(=O)O + O
electrical conductivity [S/m], 101 kPa
Conditions | 293.15 K | 298.15 K | 303.15 K | 308.15 K | 313.15 K
x2 = 0.0008945, x1 = 0.0002797 | 0.0793 ± 0.005 | 0.0896 ± 0.0056 | 0.0999 ± 0.0062 | 0.111 ± 0.0068 | 0.123 ± 0.0075
x2 = 0.0008945, x1 = 0.0003 | 0.0824 ± 0.005 | 0.0938 ± 0.0058 | 0.105 ± 0.0064 | 0.117 ± 0.0072 | 0.129 ± 0.0079
x2 = 0.0008945, x1 = 0.0003225 | 0.086 ± 0.0054 | 0.0984 ± 0.0061 | 0.109 ± 0.0068 | 0.123 ± 0.0076 | 0.135 ± 0.0083
x2 = 0.0008945, x1 = 0.0003431 | 0.0893 ± 0.0056 | 0.102 ± 0.0064 | 0.115 ± 0.0071 | 0.128 ± 0.0079 | 0.14 ± 0.0086
x2 = 0.0008946, x1 = 0.0001787 | 0.0623 ± 0.0039 | 0.069 ± 0.0043 | 0.0771 ± 0.0048 | 0.086 ± 0.0053 | 0.0944 ± 0.0058
x2 = 0.0008946, x1 = 0.000206 | 0.0676 ± 0.0043 | 0.0752 ± 0.0047 | 0.0839 ± 0.0052 | 0.093 ± 0.0057 | 0.103 ± 0.0063
x2 = 0.0008946, x1 = 0.0002337 | 0.0721 ± 0.0045 | 0.081 ± 0.0051 | 0.09 ± 0.0056 | 0.0999 ± 0.0061 | 0.111 ± 0.0068
x2 = 0.0008946, x1 = 0.0002576 | 0.0759 ± 0.0048 | 0.0855 ± 0.0053 | 0.0949 ± 0.0059 | 0.106 ± 0.0065 | 0.118 ± 0.0072
x2 = 0.0008947, x1 = 6.107e-05 | 0.0231 ± 0.0015 | 0.0264 ± 0.0017 | 0.0294 ± 0.0018 | 0.0327 ± 0.002 | 0.036 ± 0.0023
x2 = 0.0008947, x1 = 8.317e-05 | 0.0312 ± 0.002 | 0.0352 ± 0.0022 | 0.0392 ± 0.0024 | 0.0433 ± 0.0027 | 0.0476 ± 0.003
x2 = 0.0008947, x1 = 0.0001051 | 0.0388 ± 0.0024 | 0.0437 ± 0.0027 | 0.0485 ± 0.003 | 0.0537 ± 0.0033 | 0.059 ± 0.0037
x2 = 0.0008947, x1 = 0.0001274 | 0.0473 ± 0.003 | 0.0523 ± 0.0033 | 0.0589 ± 0.0037 | 0.0647 ± 0.004 | 0.0718 ± 0.0045
x2 = 0.0008947, x1 = 0.000152 | 0.0562 ± 0.0035 | 0.0624 ± 0.0039 | 0.0692 ± 0.0043 | 0.0771 ± 0.0048 | 0.0851 ± 0.0053
x2 = 0.001798, x1 = 0.0001447 | 0.056 ± 0.0035 | 0.0627 ± 0.0039 | 0.0696 ± 0.0043 | 0.0768 ± 0.0048 | 0.0846 ± 0.0053
x2 = 0.001798, x1 = 0.0001707 | 0.063 ± 0.004 | 0.0704 ± 0.0044 | 0.0781 ± 0.0048 | 0.0865 ± 0.0053 | 0.0956 ± 0.0059
x2 = 0.001798, x1 = 0.0001977 | 0.0685 ± 0.0043 | 0.0766 ± 0.0048 | 0.0852 ± 0.0052 | 0.0946 ± 0.0058 | 0.105 ± 0.0064
x2 = 0.001798, x1 = 0.0002221 | 0.0729 ± 0.0046 | 0.0816 ± 0.0051 | 0.091 ± 0.0056 | 0.101 ± 0.0062 | 0.113 ± 0.0069
x2 = 0.001798, x1 = 0.0002443 | 0.0767 ± 0.0049 | 0.0861 ± 0.0054 | 0.0963 ± 0.0059 | 0.107 ± 0.0066 | 0.12 ± 0.0074
x2 = 0.001798, x1 = 0.0002649 | 0.0802 ± 0.0051 | 0.0902 ± 0.0056 | 0.101 ± 0.0062 | 0.112 ± 0.0069 | 0.126 ± 0.0077
x2 = 0.001798, x1 = 0.000284 | 0.0835 ± 0.0053 | 0.094 ± 0.0058 | 0.105 ± 0.0065 | 0.118 ± 0.0072 | 0.131 ± 0.0081
x2 = 0.001798, x1 = 0.0003015 | 0.0864 ± 0.0053 | 0.0974 ± 0.006 | 0.109 ± 0.0067 | 0.122 ± 0.0075 | 0.137 ± 0.0084
x2 = 0.001798, x1 = 0.000321 | 0.0898 ± 0.0057 | 0.101 ± 0.0063 | 0.114 ± 0.0071 | 0.127 ± 0.0079 | 0.142 ± 0.0087
x2 = 0.001799, x1 = 5.376e-05 | 0.0229 ± 0.0014 | 0.0259 ± 0.0016 | 0.029 ± 0.0018 | 0.0323 ± 0.002 | 0.0357 ± 0.0023
x2 = 0.001799, x1 = 7.599e-05 | 0.0313 ± 0.002 | 0.0352 ± 0.0022 | 0.0394 ± 0.0025 | 0.0437 ± 0.0028 | 0.0482 ± 0.0031
x2 = 0.001799, x1 = 9.786e-05 | 0.0395 ± 0.0025 | 0.0443 ± 0.0028 | 0.0494 ± 0.0031 | 0.0546 ± 0.0034 | 0.0601 ± 0.0038
x2 = 0.001799, x1 = 0.0001201 | 0.0476 ± 0.003 | 0.0533 ± 0.0033 | 0.0593 ± 0.0037 | 0.0655 ± 0.0041 | 0.0721 ± 0.0046
